Laboratory results from patent US5260335A, “Pharmaceutical preparations for the treatment of inflammatory diseases” (Plantamed Arzneimittel GmbH, priority 1991, dated 1993).

Assays:
[1] = test system: PAF-induced bronchial obstruction; test: Inhibition of PAF-induced bronchial reaction (successive inhalation of histamine, PAF and histamine); format: in vivo, guinea pigs
Protocol: All the experiments were conducted according to a randomized evaluation record:
Groups of 10 to 14 animals were divided into two sub-groups and either treated with the material to be studied or with control solutions.
1 hour, 12 hours, 4 or 7 days after the pretreatment, the animals were exposed to various inhalation stimuli. […] Ovalbumin, PAF, histamine and acetylcholine were administered as an aerosol atomized by ultrasound.
Spontaneously breathing animals were placed in a dual-chamber body plethysmograph in which the two chambers were separated around the head of the animals by a rubber collar filled with water. Changes in volume in the two chambers were measured by means of pressure transfer systems. The degree of bronchial obstruction was determined by means of the parameter, "compressed air".
The action of the plant extracts or of the compounds on the PAF-induced reaction was studied by means of the successive inhalation of histamine, PAF and histamine:
One group of animals was divided into two sub-groups and both sub-groups inhaled histamine in a concentration causing a moderate bronchial obstruction. One hour later, one group was given the substances to be studied, the other group was given the solvent alone. Both groups were subjected 12 hours later to a stimulus by means of the successive inhalation of PAF and histamine with 1 μg PAF at first and, 60 minutes later, the same dose of histamine being given as before.

[2] = test system: bronchial obstruction after allergen inhalation; test: Inhibition of bronchial obstruction after allergen (ovalbumin) inhalation in sensitized guinea pigs; format: in vivo; settings: for activity in preventing bronchial obstruction after inhalation of an allergen (in words): methyl gallate, gallic acid and quercetin compared
Protocol: Male white guinea pigs were sensitized by means of intraperitoneal and intramuscular injection of ovalbumin according to the well-known methods. […] All the experiments were conducted according to a randomized evaluation record: Groups of 10 to 14 animals were divided into two sub-groups and either treated with the material to be studied or with control solutions. […] Ovalbumin, PAF, histamine and acetylcholine were administered as an aerosol atomized by ultrasound. Spontaneously breathing animals were placed in a dual-chamber body plethysmograph in which the two chambers were separated around the head of the animals by a rubber collar filled with water. Changes in volume in the two chambers were measured by means of pressure transfer systems. The degree of bronchial obstruction was determined by means of the parameter, "compressed air".

With `O=C(OC1CC(OC(=O)c2cc(O)c(O)c(O)c2)(C(=O)O)CC(OC(=O)c2cc(O)c(O)c(O)c2)C1OC(=O)c1cc(O)c(O)c(O)c1)c1cc(O)c(O)c(O)c1` (single isomer, unassigned) [tetragalloylquinic acid] the “% inhibition of bronchial obstruction after PAF inhalation” value ([1]; 5 mg/kg) was 60 ± 43%, the “inhibition of PAF-induced bronchial reaction” value ([1]; oral dose of 5 mg/kg) was “about 60%” and the “% inhibition of bronchial obstruction after allergen inhalation, 1st stimulus” value (from here on “% inhibition … 1st stimulus”) ([2]; 5 mg/kg) was 86 ± 24%. For the same molecule, the “% inhibition of bronchial obstruction after allergen inhalation, 2nd stimulus” value (“% inhibition … 2nd stimulus” for short) ([2]; 5 mg/kg) was 57 ± 79% and the “inhibition of bronchial reactions to an allergen stimulus” value ([2]; oral dose of 5 mg/kg) was 86±24%.
In the case of `O=C(O)c1cc(O)c(O)c(O)c1` [Gallic acid, gallic acid], the “% inhibition … 1st stimulus” value ([2]; 45 mg/kg) is reported as 37 ± 35%, the “% inhibition … 2nd stimulus” value ([2]; 45 mg/kg) is reported as 40 ± 31% and the “activity in preventing bronchial obstruction after inhalation of an allergen (in words)” value (“activity … of an allergen (in words)” for short) [2] is reported as “about the same activity”.
`COC(=O)c1cc(O)c(O)c(O)c1` [Methyl gallate, methyl gallate] was tested, and the “% inhibition of bronchial obstruction after PAF inhalation” value ([1]; 45 mg/kg) was 65 ± 24%, the “activity in PAF-induced bronchial obstruction (in words)” value ([1]; compared with the mixture of quercetin, gallic acid and protocatechinic acid) was “somewhat more activity than the mixture” and the “% inhibition … 1st stimulus” value ([2]; 45 mg/kg) was 43 ± 34%. The “% inhibition … 2nd stimulus” value ([2]; 45 mg/kg) was 41 ± 24% and the “activity … of an allergen (in words)” value [2] was “about the same activity”.
In the case of `O=c1c(O)c(-c2ccc(O)c(O)c2)oc2cc(O)cc(O)c12` [Quercetin, quercetin, reference compound], the “% inhibition … 1st stimulus” value ([2]; 45 mg/kg) is reported as 53 ± 23%, the “% inhibition … 2nd stimulus” value ([2]; 45 mg/kg) is reported as 34 ± 33% and the “activity … of an allergen (in words)” value [2] is reported as “about the same activity”.
